Measurements published in patent publication US20210180023A1, “CARDIAC REPAIR BY REPROGRAMMING OF ADULT CARDIAC FIBROBLASTS INTO CARDIOMYOCYTES” (The Board of Regents of the University of Texas System, priority 2017, published 2021).

Experiments:
[1] = system: adult tail-tip fibroblasts (TTFs) from αMHC-GFP mice; test: Human retroviral ORF cDNA library screen for AGHMT-mediated cardiac reprogramming (high-throughput imaging of αMHC-GFP and cTnT); assay type: cell-based, mouse; conditions: individual cDNA expressed together with 5F (AGHMT), 9 days, Z-score ≥2 activator, ≤−2 inhibitor
Description: Isolation of mouse tail-tip fibroblast. For isolation of adult mouse tail-tip fibroblasts, tails were cut from 8-12 weeks old adult wild-type or αMHC-GFP mouse and were minced into […] with razor blades after peeling off the superficial dermis. The minced tails were placed in fibroblast growth medium (DMEM supplemented with 10% FBS and 1% (vol/vol) penicillin/streptomycin). Tail-tip fibroblasts migrated out from the explants within 1 week and were passaged one time before use.
Construction of human retroviral ORFs library. Gateway-compatible Human ORFs pEntry vectors were purchased from Thermo Fisher Scientific. Gateway-compatible retroviral destination vector, pMXs-gw, was a gift from Shinya Yamanaka (Addgene plasmid #18656) (Takahashi, 2006). The inventors transferred each ORF individually into pMXs-gw by performing site-specific LR recombination using Gateway LR Clonase II Enzyme Mix kit (Thermo Fisher Scientific).
(§1) Retroviruses production, cellular reprogramming and treatment. For retroviruses production, Platinum E cells were seeded into culture dishes (1×10^5 cells/cm2) one day before transfection in DMEM supplemented with 10% FBS and 1% penicillin/streptomycin. Cells reached ˜80% confluency on the day of transfection. DNA plasmids were transfected into Platinum E cells using FuGENE 6 transfection reagent. Twenty-four hours after transfection, wild type or αMHC-GFP tail-tip fibroblasts were seeded into culture dishes or plates that were precoated with SureCoat (Cellutron) for one hour at a density of 6×10^4/cm^2. Forty-eight hours after transfection, polybrene was added to viral medium that was filtered through a 0.45-μm filter at a concentration of […]. The mixture replaced the growth medium in the cell culture plate with tail-tip fibroblasts. The viral infection was serially repeated twice. Twenty-four hours after the second infection, the viral medium was replaced with induction medium, composed of DMEM/199 (4:1), 10% conditioned medium obtained from neonatal rat cardiomyocyte culture, 10% FBS, 5% horse serum, 1% penicillin/streptomycin, 1% nonessential amino acids, 1% essential amino acids, 1% B-27, 1% insulin-selenium-transferrin, 1% vitamin mixture, and 1% sodium pyruvate (Invitrogen). Small molecule treatments were used throughout the reprogramming process […] (Sigma).
Immunocytochemistry. For immunocytochemistry, cells were fixed in 4% paraformaldehyde for 15 min and permeabilized with 0.1% Triton-X in room temperature. Cells were washed with PBS for three times followed by blocking with 10% goat serum for 1 hr. Cells then were incubated with mouse monoclonal anti-cardiac Troponin T (cTnT) antibody (Thermo Scientific) at 1:500 dilutions and rabbit anti-GFP antibody (Thermo Scientific) at 1:500 dilutions in 5% Goat serum for 1 hr. After washing with PBS three times, Cells then were incubated with donkey anti-mouse alexa fluor 647 (Invitrogen) at 1:500 and goat anti-rabbit Alexa fluor 488 at 1:500 (Invitrogen).
Identification of activators and inhibitors of cardiac reprogramming in adult fibroblasts. The inventors' previously optimized cardiac reprogramming protocol with five factors (AGHMT, also called 5F) was able to reprogram ˜3% efficiency of adult TTFs to iCMs as measured by activation of a cardiac-specific αMHC-GFP transgene and cardiac troponin T (cTnT) immunostaining (Zhou et al., 2015). To identify additional regulators of cardiac reprogramming, the inventors created a retroviral expression library consisting of 1,052 open reading frame (ORF) cDNAs representing 786 human transcription factor, cytokine, epigenetic regulator and nuclear receptor genes (Table 51). The inventors screened this expression library for activators and inhibitors of cardiac reprogramming by expressing individual cDNAs together with 5F in isolated TTFs from αMHC-GFP mice, as schematized in FIG. 1A. […]

adult αMHC-GFP TTFs = test: Flow cytometry of αMHC-GFP+ and cTnT+ TTFs after retroviral reprogramming; assay type: cell-based, mouse; conditions: ZNF281 added to 5F (6F), 7 days
Procedure: as §1
Flow Cytometry. For flow Cytometry, cells were trypsinized and fixed with fixation buffer (BD Bioscience) for 15 min on ice. Fixed cells were washed with Perm/Wash buffer (BD Bioscience) for three times. […] Cells were washed with Perm/Wash buffer, and then analyzed using FACS Caliber (BD Sciences) and FlowJo software.
ZNF281 enhances cardiac reprogramming of adult fibroblasts. […] The addition of ZNF281 to 5F increased the expression of GFP and cTnT in αMHC-GFP CFs evaluated by immunocytochemistry after 7 days of reprogramming (FIG. 10A). […]

Zinc finger protein 281 [ZNF281]
cTnT Z-score [1]: 7.0 | αMHC Z-score ([1]; αMHC-GFP): 2.9 | cTnT+ TTFs (adult αMHC-GFP TTFs): ~45% | αMHC-GFP+ TTFs (adult αMHC-GFP TTFs): ~33% | αMHC-GFP+/cTnT+ TTFs (adult αMHC-GFP TTFs): ~28%
